ChEMBL document CHEMBL1201862, “PubChem BioAssay data set” (2004)
Active and inactive are the calls of the source. Unless noted, the rule behind the calls is not given here.

Experiments:
[1] = target: T1, RNA-binding protein pos-1 (Caenorhabditis elegans, UniProt G5EF15); assay: disruptors of C. elegans POS-1 RNA interaction – biochemical, fluorescence polarization, dose response (AID 1964);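 also: purified POS-1 fused to maltose binding protein made in E. coli; potency of compounds blocking POS-1 binding to fluorescent RNA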
T1 sequence (G5EF15 whole entry): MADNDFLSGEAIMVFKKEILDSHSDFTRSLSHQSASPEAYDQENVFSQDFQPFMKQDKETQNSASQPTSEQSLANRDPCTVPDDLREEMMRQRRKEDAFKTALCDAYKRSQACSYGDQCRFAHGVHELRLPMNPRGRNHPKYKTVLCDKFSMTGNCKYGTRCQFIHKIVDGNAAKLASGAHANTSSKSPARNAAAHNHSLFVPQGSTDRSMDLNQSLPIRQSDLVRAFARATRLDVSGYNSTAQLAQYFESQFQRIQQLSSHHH

[2] = target: T2, Zinc finger protein mex-5 (Caenorhabditis elegans, UniProt Q9XUB2); assay: potency of MEX-5 RNA-binding blockers – biochemical, C. elegans, fluorescence polarization, dose response (AID 1960)
T2 sequence (Q9XUB2 whole entry): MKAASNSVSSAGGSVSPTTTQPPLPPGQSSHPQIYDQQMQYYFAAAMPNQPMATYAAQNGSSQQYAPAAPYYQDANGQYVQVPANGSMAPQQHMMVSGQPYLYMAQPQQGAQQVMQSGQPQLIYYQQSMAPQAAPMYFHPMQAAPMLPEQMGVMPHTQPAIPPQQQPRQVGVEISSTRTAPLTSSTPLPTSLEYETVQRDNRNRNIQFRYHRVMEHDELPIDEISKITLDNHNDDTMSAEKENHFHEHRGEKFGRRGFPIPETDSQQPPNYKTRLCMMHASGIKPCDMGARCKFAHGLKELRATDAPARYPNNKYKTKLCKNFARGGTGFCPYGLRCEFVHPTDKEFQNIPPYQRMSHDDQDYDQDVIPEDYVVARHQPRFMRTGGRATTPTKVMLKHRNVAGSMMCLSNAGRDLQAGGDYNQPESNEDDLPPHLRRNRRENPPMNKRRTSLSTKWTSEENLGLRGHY

[3] = target: Intestinal-type alkaline phosphatase (Homo sapiens, UniProt P09923); assay: activation of human intestinal alkaline phosphatase – biochemical, dose response (AID 488873); format: functional
Intestinal-type alkaline phosphatase (Homo sapiens, UniProt P09923), sequence (P09923 whole entry): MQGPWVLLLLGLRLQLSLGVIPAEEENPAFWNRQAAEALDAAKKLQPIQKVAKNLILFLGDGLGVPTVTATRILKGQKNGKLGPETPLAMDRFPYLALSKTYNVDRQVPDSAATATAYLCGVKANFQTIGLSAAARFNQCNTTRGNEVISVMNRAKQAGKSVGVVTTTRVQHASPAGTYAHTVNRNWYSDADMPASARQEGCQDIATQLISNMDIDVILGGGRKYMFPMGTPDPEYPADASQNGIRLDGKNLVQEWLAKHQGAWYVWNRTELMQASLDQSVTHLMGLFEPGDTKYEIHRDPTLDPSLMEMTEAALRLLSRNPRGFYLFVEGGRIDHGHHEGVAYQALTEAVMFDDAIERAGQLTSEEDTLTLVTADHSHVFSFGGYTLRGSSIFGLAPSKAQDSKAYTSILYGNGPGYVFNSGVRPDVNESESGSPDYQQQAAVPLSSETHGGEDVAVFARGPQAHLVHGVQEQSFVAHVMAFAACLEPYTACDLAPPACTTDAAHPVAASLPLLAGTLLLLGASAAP

[4] = target: Intestinal-type alkaline phosphatase (Mus musculus, UniProt P24822); assay: PubChem AID 488785; format: functional
Intestinal-type alkaline phosphatase (Mus musculus, UniProt P24822), sequence (P24822 whole entry): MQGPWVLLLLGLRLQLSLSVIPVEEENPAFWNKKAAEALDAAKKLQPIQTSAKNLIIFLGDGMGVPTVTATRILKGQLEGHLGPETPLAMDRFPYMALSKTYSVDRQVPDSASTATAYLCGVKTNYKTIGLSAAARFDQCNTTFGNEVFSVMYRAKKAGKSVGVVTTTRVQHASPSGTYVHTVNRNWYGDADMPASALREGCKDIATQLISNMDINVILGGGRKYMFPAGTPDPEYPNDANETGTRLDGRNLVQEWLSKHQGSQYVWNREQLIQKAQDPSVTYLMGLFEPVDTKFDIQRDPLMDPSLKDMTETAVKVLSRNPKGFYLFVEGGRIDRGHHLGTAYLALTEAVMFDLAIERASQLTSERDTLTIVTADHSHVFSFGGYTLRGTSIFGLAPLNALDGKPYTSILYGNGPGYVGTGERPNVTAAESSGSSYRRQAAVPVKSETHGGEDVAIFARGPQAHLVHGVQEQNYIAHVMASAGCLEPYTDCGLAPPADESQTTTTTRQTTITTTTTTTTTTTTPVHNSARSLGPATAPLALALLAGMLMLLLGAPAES

[5] = target: T3, Alkaline phosphatase, tissue-nonspecific isozyme (Homo sapiens, UniProt P05186); assay: TNAP enzyme inhibition by screening hits, dose response, selectivity assay for mouse IAP inhibitor project, biochemical, human TNAP, uHTS hits (AID 488906); format: functional
T3 sequence (P05186 whole entry): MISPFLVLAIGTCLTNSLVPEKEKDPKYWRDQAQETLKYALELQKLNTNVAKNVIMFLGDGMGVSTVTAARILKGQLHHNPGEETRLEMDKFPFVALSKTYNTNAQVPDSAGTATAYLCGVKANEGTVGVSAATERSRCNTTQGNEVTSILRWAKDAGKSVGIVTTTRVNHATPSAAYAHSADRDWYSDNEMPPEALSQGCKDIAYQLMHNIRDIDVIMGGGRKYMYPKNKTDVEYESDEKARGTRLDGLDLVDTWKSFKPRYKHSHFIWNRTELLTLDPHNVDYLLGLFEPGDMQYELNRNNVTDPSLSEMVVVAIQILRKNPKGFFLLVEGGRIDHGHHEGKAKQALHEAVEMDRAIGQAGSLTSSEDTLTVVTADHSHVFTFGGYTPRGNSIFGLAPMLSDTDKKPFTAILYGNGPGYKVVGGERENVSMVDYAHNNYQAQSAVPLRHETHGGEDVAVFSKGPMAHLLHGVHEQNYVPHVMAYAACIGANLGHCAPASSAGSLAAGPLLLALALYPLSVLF

[6] = target: T4, Peroxisome proliferator-activated receptor gamma (Homo sapiens, UniProt P37231); assay: competitive ligand displacement at PPARg – biochemical, TR-FRET, LanthaScreen, PPARg partial agonist project, dose response (AID 504446)
T4 sequence (P37231 whole entry): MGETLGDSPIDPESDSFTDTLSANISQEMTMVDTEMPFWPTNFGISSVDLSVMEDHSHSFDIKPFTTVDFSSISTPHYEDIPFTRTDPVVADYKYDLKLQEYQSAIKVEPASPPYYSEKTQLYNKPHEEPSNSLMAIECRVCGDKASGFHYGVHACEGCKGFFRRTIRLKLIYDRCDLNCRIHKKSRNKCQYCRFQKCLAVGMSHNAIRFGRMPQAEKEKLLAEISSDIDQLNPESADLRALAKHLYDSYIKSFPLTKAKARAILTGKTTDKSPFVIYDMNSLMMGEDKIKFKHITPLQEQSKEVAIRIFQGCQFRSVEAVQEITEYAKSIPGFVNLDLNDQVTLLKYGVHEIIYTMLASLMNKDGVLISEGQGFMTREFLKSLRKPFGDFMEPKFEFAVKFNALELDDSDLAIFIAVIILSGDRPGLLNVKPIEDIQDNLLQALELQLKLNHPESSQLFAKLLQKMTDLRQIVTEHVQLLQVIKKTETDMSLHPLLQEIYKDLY

[7] = target: T4, Peroxisome proliferator-activated receptor gamma; assay: PPARg transcriptional activation, reporter cells – cell-based, luminescence, assay provider, dose response (AID 504447); format: functional
[8] = target: Peroxisome proliferator-activated receptor alpha (Homo sapiens, UniProt Q07869); assay: Late stage assay provider counterscreen for partial agonists of the peroxisome proliferator-activated receptor gamma (PPARg): Luminescence-based cell-based dose response assay for partial agonists of the peroxisome proliferator-activated receptor alpha (PPARA). [Related pubchem assays (depositor defined):AID1051, AID1300, AID1319, AID1679, AID1808, AID504446, AID504447, AID504452, AID504453, AID631]; format: functional
Peroxisome proliferator-activated receptor alpha, sequence (Q07869 whole entry): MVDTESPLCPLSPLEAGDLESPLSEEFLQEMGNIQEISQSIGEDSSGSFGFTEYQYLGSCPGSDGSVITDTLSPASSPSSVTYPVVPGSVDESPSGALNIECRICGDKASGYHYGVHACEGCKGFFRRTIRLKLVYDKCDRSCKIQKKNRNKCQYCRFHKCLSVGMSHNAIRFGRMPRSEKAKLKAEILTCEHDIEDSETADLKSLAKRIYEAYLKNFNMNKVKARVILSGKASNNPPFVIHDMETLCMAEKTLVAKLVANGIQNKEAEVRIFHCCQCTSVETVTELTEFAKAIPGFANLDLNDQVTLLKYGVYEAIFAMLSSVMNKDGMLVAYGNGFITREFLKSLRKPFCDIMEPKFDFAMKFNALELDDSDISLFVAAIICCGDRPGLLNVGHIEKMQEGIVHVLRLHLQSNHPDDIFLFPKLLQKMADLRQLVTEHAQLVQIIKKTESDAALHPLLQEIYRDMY

[9] = target: T5, Kappa-type opioid receptor (Homo sapiens, UniProt P41145); assay: kappa opioid receptor activation by imaging – image-based, set 3, SAR follow-up (AID 488833); format: functional
T5 sequence (P41145 whole entry): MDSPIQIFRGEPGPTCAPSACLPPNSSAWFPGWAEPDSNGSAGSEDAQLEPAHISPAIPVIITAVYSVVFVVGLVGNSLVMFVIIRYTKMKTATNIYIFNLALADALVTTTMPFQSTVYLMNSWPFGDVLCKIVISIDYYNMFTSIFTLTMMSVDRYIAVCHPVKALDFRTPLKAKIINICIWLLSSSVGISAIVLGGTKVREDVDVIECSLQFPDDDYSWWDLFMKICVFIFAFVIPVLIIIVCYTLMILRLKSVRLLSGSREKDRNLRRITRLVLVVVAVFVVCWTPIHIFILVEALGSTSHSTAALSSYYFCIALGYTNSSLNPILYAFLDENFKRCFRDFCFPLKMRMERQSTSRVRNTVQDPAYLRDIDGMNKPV

Mu-type opioid receptor = Mu-type opioid receptor (Homo sapiens, UniProt P35372); assay: SAR Analysis of Agonists of the MOR Receptor using an Image-Based Assay - Set 3. [Related pubchem assays (depositor defined):AID1777, AID1785, AID1786, AID1966, AID2133, AID2136, AID2284, AID2285, AID2352]; format: functional
Mu-type opioid receptor, sequence (P35372 whole entry): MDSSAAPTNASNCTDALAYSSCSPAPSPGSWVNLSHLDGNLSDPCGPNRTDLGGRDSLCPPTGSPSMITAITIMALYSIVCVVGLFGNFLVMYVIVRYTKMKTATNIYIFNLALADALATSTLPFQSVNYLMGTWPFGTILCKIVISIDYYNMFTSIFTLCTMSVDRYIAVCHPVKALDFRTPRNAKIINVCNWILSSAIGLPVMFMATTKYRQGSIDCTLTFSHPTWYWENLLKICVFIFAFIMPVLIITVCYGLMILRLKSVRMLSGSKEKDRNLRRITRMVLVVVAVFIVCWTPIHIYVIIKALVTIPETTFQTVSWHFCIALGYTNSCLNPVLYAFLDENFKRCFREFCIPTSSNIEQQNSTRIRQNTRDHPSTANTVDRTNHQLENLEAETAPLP

[10] = target: Delta-type opioid receptor (Homo sapiens, UniProt P41143); assay: SAR Analysis of Agonists of the DOR Receptor using an Image-Based Assay - Set 3. [Related pubchem assays (depositor defined):AID1777, AID1786]; format: functional
Delta-type opioid receptor, sequence (P41143 whole entry): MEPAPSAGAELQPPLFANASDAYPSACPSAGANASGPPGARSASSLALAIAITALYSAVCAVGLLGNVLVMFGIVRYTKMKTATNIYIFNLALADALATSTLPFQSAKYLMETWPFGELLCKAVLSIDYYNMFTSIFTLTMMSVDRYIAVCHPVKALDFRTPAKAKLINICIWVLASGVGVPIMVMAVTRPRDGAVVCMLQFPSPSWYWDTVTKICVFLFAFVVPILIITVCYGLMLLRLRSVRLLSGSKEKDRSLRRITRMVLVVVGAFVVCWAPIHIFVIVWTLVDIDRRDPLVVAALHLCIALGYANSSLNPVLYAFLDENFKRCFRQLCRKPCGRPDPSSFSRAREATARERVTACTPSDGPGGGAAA

[11] = target: T5, Kappa-type opioid receptor; assay: SAR analysis of small molecule agonists of the kappa opioid receptor via a luminescent beta-arrestin assay - Set 3. [Related pubchem assays (depositor defined):AID1777, AID1785, AID1786, AID1966, AID2133, AID2136, AID2284, AID2500]; format: functional
[12] = target: Sphingosine 1-phosphate receptor 5 (Homo sapiens, UniProt Q9H228); assay: (§1) Late-stage fluorescence-based dose-response cell-based assay to identify agonists of the Sphingosine 1-Phosphate Receptor 4 (S1P4): Sphingosine 1-Phosphate Receptor 5 (S1P5) counterscreen assay. [Related pubchem assays (depositor defined):AID1509, AID1523, AID1563, AID1686, AID1701, AID1801, AID463107, AID463225, AID504400]; format: functional
Sphingosine 1-phosphate receptor 5, sequence (Q9H228 whole entry): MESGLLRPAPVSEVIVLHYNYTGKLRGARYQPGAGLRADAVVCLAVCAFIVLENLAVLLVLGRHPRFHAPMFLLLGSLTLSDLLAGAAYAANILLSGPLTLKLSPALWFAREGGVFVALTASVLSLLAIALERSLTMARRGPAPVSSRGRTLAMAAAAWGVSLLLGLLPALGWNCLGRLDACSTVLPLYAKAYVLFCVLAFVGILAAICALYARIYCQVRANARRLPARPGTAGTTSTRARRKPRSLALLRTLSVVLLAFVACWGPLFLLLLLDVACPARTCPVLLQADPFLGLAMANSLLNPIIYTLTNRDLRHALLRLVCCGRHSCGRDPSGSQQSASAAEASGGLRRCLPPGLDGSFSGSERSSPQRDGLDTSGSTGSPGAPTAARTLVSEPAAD

[13] = target: T6, Sphingosine 1-phosphate receptor 4 (Homo sapiens, UniProt O95977); assay: potency of S1P4 activators – cell-based, fluorescence, synthesized compounds, late-stage follow-up (AID 463107); format: functional
T6 sequence (O95977 whole entry): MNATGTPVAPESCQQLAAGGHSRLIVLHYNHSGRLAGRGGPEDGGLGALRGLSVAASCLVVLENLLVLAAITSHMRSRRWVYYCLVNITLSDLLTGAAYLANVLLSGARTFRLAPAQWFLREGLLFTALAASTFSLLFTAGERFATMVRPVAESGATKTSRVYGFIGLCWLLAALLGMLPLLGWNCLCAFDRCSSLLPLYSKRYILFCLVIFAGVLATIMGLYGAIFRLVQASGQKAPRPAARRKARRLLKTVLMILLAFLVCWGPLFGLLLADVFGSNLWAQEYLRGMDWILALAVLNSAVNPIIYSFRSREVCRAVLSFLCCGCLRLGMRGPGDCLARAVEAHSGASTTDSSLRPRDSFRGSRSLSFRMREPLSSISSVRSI

[14] = target: Sphingosine 1-phosphate receptor 1 (Homo sapiens, UniProt P21453); assay: as §1, with “1 (S1P1)” for “5 (S1P5)”; format: functional
Sphingosine 1-phosphate receptor 1, sequence (P21453 whole entry): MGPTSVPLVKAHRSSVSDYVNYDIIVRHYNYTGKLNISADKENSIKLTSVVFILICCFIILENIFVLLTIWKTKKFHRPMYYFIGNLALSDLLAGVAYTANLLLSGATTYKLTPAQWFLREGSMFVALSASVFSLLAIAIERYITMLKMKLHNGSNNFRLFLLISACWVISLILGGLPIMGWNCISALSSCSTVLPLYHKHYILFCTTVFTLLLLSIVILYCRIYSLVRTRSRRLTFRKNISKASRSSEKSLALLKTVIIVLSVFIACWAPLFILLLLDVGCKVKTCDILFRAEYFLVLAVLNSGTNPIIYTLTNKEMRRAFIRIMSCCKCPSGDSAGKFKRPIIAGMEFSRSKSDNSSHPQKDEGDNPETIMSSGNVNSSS

[15] = target: Sphingosine 1-phosphate receptor 2 (Homo sapiens, UniProt O95136); assay: as §1, with “2 (S1P2)” for “5 (S1P5)”; format: functional
Sphingosine 1-phosphate receptor 2, sequence (O95136 whole entry): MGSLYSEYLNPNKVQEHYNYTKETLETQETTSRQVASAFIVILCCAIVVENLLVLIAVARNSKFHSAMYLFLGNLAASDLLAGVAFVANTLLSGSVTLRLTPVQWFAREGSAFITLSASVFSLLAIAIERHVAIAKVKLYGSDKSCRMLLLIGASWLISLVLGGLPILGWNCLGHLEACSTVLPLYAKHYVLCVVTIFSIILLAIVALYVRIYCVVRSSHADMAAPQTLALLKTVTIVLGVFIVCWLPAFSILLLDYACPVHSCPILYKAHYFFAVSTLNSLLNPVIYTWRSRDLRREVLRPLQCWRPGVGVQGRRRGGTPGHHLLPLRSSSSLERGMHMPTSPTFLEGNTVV

[16] = target: Sphingosine 1-phosphate receptor 3 (Homo sapiens, UniProt Q99500); assay: as §1, with “3 (S1P3)” for “5 (S1P5)”; format: functional
Sphingosine 1-phosphate receptor 3, sequence (Q99500 whole entry): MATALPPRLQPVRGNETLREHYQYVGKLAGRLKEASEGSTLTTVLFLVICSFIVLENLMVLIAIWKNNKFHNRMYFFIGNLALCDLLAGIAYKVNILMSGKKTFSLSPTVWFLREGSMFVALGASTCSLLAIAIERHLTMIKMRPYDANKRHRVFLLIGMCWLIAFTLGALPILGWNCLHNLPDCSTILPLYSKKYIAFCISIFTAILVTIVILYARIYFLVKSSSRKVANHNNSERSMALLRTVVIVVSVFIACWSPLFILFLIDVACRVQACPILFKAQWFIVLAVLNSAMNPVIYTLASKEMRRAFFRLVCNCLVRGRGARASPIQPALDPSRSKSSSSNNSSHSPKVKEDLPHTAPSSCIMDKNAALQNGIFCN

## O=C(O)Cc1ccc(O)c(O)c1 [3,4-DIHYDROXYPHENYLACETIC ACID]
[1]
  EC50: 49.8 µM (active)
[2]
  EC50: 28.9 µM (active)
[3]
  EC50: > 100 µM (inactive)
[4]
  IC50: 4.17 µM (active)
[5]
  IC50: > 100 µM (inactive)

## O=C(O)CCN1C(=O)/C(=C\c2cccc(OCc3ccccc3)c2)SC1=S
[6]
  IC50: 0.276 µM (active)
[7]
  EC50: 1.5 µM (active)
[8]
  EC50: > 3 µM (inactive)

## Cc1cc(C)c(CSc2nnc(-c3ccccn3)n2Cc2cccs2)c(C)c1
[9]
  EC50: 9.5 µM (active)
Mu-type opioid receptor
  EC50: > 32 µM (inactive)
[10]
  EC50: > 32 µM (inactive)
[11]
  EC50: > 20 µM (inactive)

## C/N=C1\SC(=Cc2cc(C)n(Cc3c(F)cccc3F)c2C)C(=O)N1OC
[12]
  EC50: 0.339 µM (active)
[13]
  EC50: 0.0886 µM (active)
[14]
  EC50: 0.113 µM (active)
[15]
  EC50: > 50 µM (inactive)
[16]
  EC50: > 50 µM (inactive)
